According to patent US10329304B2, “Compounds and methods for inhibition of hedgehog signaling and phosphodiesterase” (Vanderbilt University, priority 2014, dated 2019):
Like-named read-outs stand apart in the source and are kept apart here.

Experiments:
[1] = tested on: Hedgehog signaling (TM3-Gli-Luc); assay: TM3-Gli-Luc luciferase reporter assay stimulated with 20 nM SAG; format: cell-based
Experimental: TM3-Gli-Luc cells were maintained on sterile 0.1% gelatin (from porcine skin, Type A, prepared in MilliQ water, autoclaved, then sterile-filtered) in 1:1 Dulbecco's Modified Eagle Medium (DMEM)/F12 supplemented with 5% horse serum, 2.5% fetal bovine serum (FBS), and 15 mM HEPES, hereafter referred to as TM3 Culture Medium. For small molecule evaluation, TM3-Gli-Luc cells were assayed on 0.1% gelatin in DMEM/F12 supplemented with 2.5% FBS and 15 mM HEPES, hereafter referred to as TM3Luc Medium. Sufu^−/− cells were maintained in DMEM supplemented with 4.5 g/L D-glucose, L-glutamine, 25 mM HEPES, and 10% FBS, hereafter referred to as D10 FBS. For small molecule evaluation, Sufu^−/− cells were assayed in DMEM supplemented with 4.5 g/L D-glucose, L-glutamine, 25 mM HEPES, and 0.5% FBS, hereafter referred to as D0.5 FBS. All cells were cultured at 37° C. with a 5% CO2 atmosphere.
On the day of cell plating, 96-well plates were coated with 50 μL/well of sterile 0.1% gelatin for 5 minutes then aspirated and replaced with 50 μL/well of TM3 Culture Medium. TM3-Gli-Luc cells were seeded at a density of 5,000 cells/well in TM3 Culture Medium and incubated for 24 hours. A master mix of 20 nM SAG in TM3Luc Medium was prepared, and small molecule solutions were prepared by adding the desired amount of compound from 10 mM DMSO stock to TM3Luc Medium containing 20 nM SAG. Negative control was prepared by adding an equi-volume amount of DMSO as compared to small molecule treated conditions to TM3Luc Medium not containing SAG. Cell plating medium was aspirated and replaced with 100 μL/well of prepared small molecule-containing media, and plates were incubated for 48 hours before proceeding to luciferase activity and cell viability reading.
TM3Luc Medium from compound treated plates was aspirated and replaced with 82 μL/well of Glo Lysis Buffer (Promega, Madison, Wis., USA), and plates were shaken at 300 rpm and room temperature for 12 minutes. Lysate was split between two white 96-well plates, 45 μL/well and 25 μL/well for luciferase reading and cell viability respectively. For luciferase activity monitoring, 45 μL/well of Steady Glo (Promega, Madison, Wis., USA) was added to 45 μL/well of cell lysate, incubated at room temperature for 5 minutes, then luminescence was measured on a Turner Biosystems Modulus Microplate Reader (Sunnyvale, Calif., USA) with an integration time of 0.5 seconds. For cell viability measurement, 25 μL/well of Cell Titer Glo (Promega, Madison, Wis., USA) (prepared by 1:10 dilution with Glo Lysis Buffer) was added to 25 μL/well of cell lysate, incubated at room temperature for 5 minutes, then luminescence was measured as above.
Luciferase activity data (Steady Glo) was divided by corresponding cell viability data (Cell Titer Glo) to arrive at a live cell number-normalized luciferase activity reading. The average of negative control data (DMSO treated) was subtracted from all wells, and percent activity was calculated by dividing all wells by the positive control (SAG treated) average. […] At least two independent assays tested on separate days were averaged to provide EC50±standard error of the mean.

zebrafish embryos = assay: Zebrafish embryo phenotypic assay (ZF); format: in vivo; details: wild-type embryonic zebrafish, dosed 5 hpf
Experimental: All zebrafish experiments were approved by Vanderbilt University Institutional Animal Care and Use Committee. Wild-type zebrafish of AB strain were maintained using standard protocols. Chemical screen for small molecules was performed as previously described. Briefly, pairs of zebrafish were mated, and fertilized eggs were arrayed in 96-well microtiter plates (5 embryos/well) containing 250 μl E3 water. At ˜4-hpf, small molecule library from Vanderbilt High Throughput Screening Facility was added to each well to the final concentration of 5 μM. Embryos were incubated at 28.5° C. until 24 and 48-hpf, when they were examined for gross morphologic changes indicative of disruption in embryonic patterning. A total of ˜30,000 compounds were screened.
ZF refers to wild-type embryonic zebrafish phenotypic assay involving dosing n=˜10 embryos in E3 egg water with compound from either a stock of 1 mM or 10 mM in DMSO at 5 hours post-fertilization and observing at 24, 48, and 72 hours post-fertilization.

[2] = TM3-Gli-Luc reporter line stimulated with 20 nM SAG, mean ± SEM, Table 13, read-out: TM3-Gli-Luc EC50
[3] = Table 9A, read-out: TM3 G8 Luciferase EC 50

SMILES | ZF Phenotype EC100 (zebrafish embryos) | other results
C=C(C)Cn1c(SCC(=O)c2cccs2)nc2sc3c(c2c1=O)CCCC3 [EGM1] |  | EC50 ([1]; 20 nM SAG, read-out: EC50): 1.34 µM
C=C(C)Cn1c(SCC(=O)c2cccs2)nccc1=O [Formula 12] |  | Hh inhibitory activity / potency in words ([1]; 20 nM SAG): complete loss of Hh inhibitory activity; EC50 [1, 2]: > 20 µM
C=C(C)Cn1c(SCC(=O)c2cccs2)nccc1=O [Formula 14a] |  | Hh inhibitory activity / potency in words ([1]; 20 nM SAG): complete loss of activity; EC50 [1, 2]: > 20 µM
CC(O)(CSc1nc2sccc2c(=O)n1C1CC1)c1ccccc1 (stereo not shown) [Formula 20b] |  | Hh inhibitory activity / potency in words ([1]; 20 nM SAG): only modest potency reductions
O=C(COc1nc2sccc2c(=O)n1C1CC1)c1ccccc1 [Formula 22a] |  | Hh inhibitory activity / potency in words ([1]; 20 nM SAG): complete loss of inhibition
O=C(CNc1nc2sccc2c(=O)n1C1CC1)c1ccccc1 [Formula 22b] |  | Hh inhibitory activity / potency in words ([1]; 20 nM SAG): complete loss of inhibition
O=C(CSc1nc2sc3c(c2c(=O)n1-c1ccccn1)CCCC3)c1cccs1 [JEH-1-034] | 1 µM | 
O=C(CSc1nc2sc3c(c2c(=O)n1-c1ccc(Br)cc1)CCCC3)c1cccs1 [JEH-1-050-1] | >50 µM | 
O=C(CSc1nc2sc3c(c2c(=O)n1-c1ccc(Cl)cn1)CCCC3)c1cccs1 [JEH-1-050-2] | 25 µM | 
O=C(CSc1nc2sccc2c(=O)n1CC1CC1)c1cccs1 [JEH-1-065-1] | 5 µM | 
O=C(CSc1nc2sccc2c(=O)n1C1CC1)c1cccs1 [JEH-1-065-2] | 10 µM | EC50 [1, 3]: 1.09 µM
O=C(O)c1ccc(-n2c(SCC(=O)c3cccs3)nc3sc4c(c3c2=O)CCCC4)cc1 [JEH-1-066] | >50 µM | 
O=C(CSc1nc2sc3c(c2c(=O)n1C1CC1)CCNC3)c1cccs1 [JEH-1-097] | >50 µM | 
O=C(CSc1nc2sccc2c(=O)n1C1CC1)N1CCOCC1 [JEH-1-103] | >50 µM | 
C=C(C)Cn1c(SCC(=O)N2CCOCC2)nc2sccc2c1=O [JEH-1-104] | >50 µM | 
O=C(CSc1nc2sc3c(c2c(=O)n1C1CC1)CCN(C(=O)C1CC1)C3)c1cccs1 [JEH-1-124] | >50 µM | 
CSc1nc2sc3c(c2c(=O)n1C1CC1)CCCC3 [JEH-1-127] | >50 µM | 
CSc1nc2sccc2c(=O)n1C1CC1 [JEH-1-131-2] | >50 µM | 
O=C(CSc1nc2ccccc2c(=O)n1C1CC1)c1cccs1 [JEH-1-134] | 1 µM | EC50 [1, 3]: 0.713 µM

SMILES | ZF Phenotype EC100 (zebrafish embryos) | other results
O=C(CSc1nc2ncccc2c(=O)n1C1CC1)c1cccs1 [JEH-1-137] | >50 µM | EC50 [1, 3]: 3.32 µM
O=C(CSc1nc2sc3c(c2c(=O)n1C1CC1)CCOC3)c1cccs1 [JEH-1-161-1] | 0.5 µM | EC50 [1, 3]: 19.1 µM
O=C(CSc1nc2sc3c(c2c(=O)n1C1CC1)CCSC3)c1cccs1 [JEH-1-161-2] | 1 µM | EC50 [1, 3]: 9.55 µM
O=c1c2ccsc2nc(SCc2ccccc2)n1C1CC1 [JEH-1-190-1] | 50 µM | 
O=c1c2ccsc2nc(SCc2ccc(Br)cc2)n1C1CC1 [JEH-1-190-2] | 50 µM | 
CC(C1CC1)n1c(SCC(=O)c2ccccc2)nc2sccc2c1=O (stereo not shown) [JEH-2-003] | 30 µM | 
O=C(CSc1nc2sccc2c(=O)n1CC1CC1)c1ccccc1 [JEH-2-007-1] | 10 µM | 
COc1ccc(-c2cc3c(=O)n(C4CC4)c(SCC(=O)c4ccccc4)nc3s2)cc1 [JEH-2-018] | >50 µM | 
COC(=O)c1cc(-c2ccc(F)cc2)sc1NC(=S)NC1CC1 [JEH-2-026] | 25 µM | 
O=C(CSc1nc2sc(-c3ccc(F)cc3)cc2c(=O)n1C1CC1)c1ccccc1 [JEH-2-034] | >50 µM | 
CC(C1CC1)n1c(SCC(=O)Nc2ccccn2)nc2sccc2c1=O (stereo not shown) [JEH-2-041-1] | 20 µM | 
CC(C1CC1)n1c(SCC(=O)Nc2ccccc2O)nc2sccc2c1=O (stereo not shown) [JEH-2-041-2] | 30 µM | 
C#CCNC(=O)CSc1nc2sc3c(c2c(=O)n1CC(=C)C)CCCC3 [JEH-2-060] | 30 µM | 
O=C(CSc1nc2sc3ccccc3c2c(=O)n1C1CC1)c1ccccc1 [JEH-4-055-1] |  | EC50 [1, 3]: 16.6 µM
O=C(CSc1nc2sc3ccccc3c2c(=O)n1C1CC1)N1CCCCC1 [JEH-4-055-2] |  | EC50 [1, 3]: 6.03 µM
C=C(C)Cn1c(SCCc2cccs2)nc2sc3c(c2c1=O)CCCC3 [JEH-4-135] |  | EC50 [1, 3]: 5.5 µM
C=C(C)Cn1c(SCC(=O)N2CCCC[C@H]2C)nc2sc3c(c2c1=O)CCCC3 [JEH-4-136] |  | TM3 G8 Luciferase % Inh., 2 pM [1]: 44.3%; TM3 G8 Luciferase % Inh., 0.5 pM ([1]; 0.5 pM as printed): 3.7%
C=C(C)Cn1c(SCC(=O)c2cccs2)nc2sc3c(c2c1=O)CCSC3 [JEH-4-143] |  | EC50 [1, 3]: 2.51 µM
C=C(C)Cn1c(NCC(=O)c2cccs2)nc2sc3c(c2c1=O)CCCC3 [JEH-5-052] |  | EC50 [1, 3]: 25 µM

SMILES | ZF Phenotype EC100 (zebrafish embryos) | other results
Cc1sc2nc(SCC(=O)c3ccccc3)n(C3CC3)c(=O)c2c1C [JEH-5-087] |  | EC50 [1, 3]: 31.6 µM
C=C(C)Cn1c(SCC(=O)c2cc3ccccc3s2)nc2sc3c(c2c1=O)CCCC3 [KK-14-093-1] | >50 µM | 
C=C(C)Cn1c(SCC(=O)c2cc3ccccc3o2)nc2sc3c(c2c1=O)CCCC3 [KK-14-094-1] | >50 µM | 
C=C(C)Cn1c(SCC(=O)c2ccc(Cl)s2)nc2sc3c(c2c1=O)CCCC3 [KK-14-094-2] | >50 µM | 
C=C(C)Cn1c(SCc2nc3ccc(Cl)cc3o2)nc2sc3c(c2c1=O)CCCC3 [KK-14-094-3] | >50 µM | 
C=C(C)Cn1c(SCc2nc3ccc(C(=O)O)cc3[nH]2)nc2sc3c(c2c1=O)CCCC3 [KK-14-096-1] | >50 µM | 
C=C(C)Cn1c(SCc2nc3cc(OC)ccc3o2)nc2sc3c(c2c1=O)CCCC3 [KK-14-096-2] | >50 µM | 
C=C(C)Cn1c(SCc2nc3ccc(S(=O)(=O)Nc4ccccc4OC)cc3[nH]2)nc2sc3c(c2c1=O)CCCC3 [KK-093-2] | >50 µM | 
O=C(CSc1nc2sc3c(c2c(=O)n1C1CC1)CCN(C(=O)c1ccc(Cl)cc1)C3)c1ccccc1 [KYK-1-54] | >50 µM | 
O=C(CSc1nc2sc3c(c2c(=O)n1C1CC1)CCN(S(=O)(=O)c1ccc(Cl)cc1)C3)c1ccccc1 [KYK-1-58] | >50 µM | 
O=C(CSc1nc2sc3c(c2c(=O)n1C1CC1)CCN(S(=O)(=O)c1ccc([N+](=O)[O-])cc1)C3)c1ccccc1 [KYK-1-61] | >50 µM | 
Cn1cnc(S(=O)(=O)N2CCc3c(sc4nc(SCC(=O)c5ccccc5)n(C5CC5)c(=O)c34)C2)c1 [KYK-1-66] | >50 µM | 
COC(=O)c1c(NC(=S)SC)sc2c1CCNC2 [KYK-1-87] | >50 µM | 
O=C(CSc1nc2sc3c(c2c(=O)n1C1CC1)CCN(CCCc1ccccc1)C3)c1ccccc1 [KYK-1-88] | >50 µM | 
COC(=O)c1c(NC(=S)NC2CC2)sc2c1CCNC2 [KYK-1-96] | >50 µM | 
O=c1c2c3c(sc2[nH]c(=S)n1C1CC1)CNCC3 [KYK-1-99] | >50 µM | 
O=C(CSc1nc2sc3c(c2c(=O)n1C1CC1)CCN(Cc1ccco1)C3)c1ccccc1 [KYK-1-103-1] | >50 µM | 
CCCCN1CCc2c(sc3nc(SCC(=O)c4ccccc4)n(C4CC4)c(=O)c23)C1 [KYK-1-103-2] | >50 µM | 
